From patent publication US20210000912A1, “Compositions And Methods For Prophylaxis Or Treatment Of Pain” (Interk Peptide Therapeutics Limited, priority 2017, published 2021) come the findings set out here.

pIC50: −log10 of the molar value.

The target of one series is T1, c-Src (h) (Homo sapiens, UniProt P12931).
T1 construct: purchased Eurofins Pharma Discovery Services UK Ltd (contract assay service)
The series is described as follows: c-Src kinase activity assay, cell free. Format: biochemical. As to the method:
(§1) The capacity of test peptides to inhibit the activity of the kinases PKG1α, PKG1β, and Src family kinases in a cell free assay was assessed. The test peptides were amidated at their C-terminal end (indicated by “—NH2”) unless otherwise noted. Kinase activity assays were conducted by Eurofins Pharma Discovery Services UK Ltd (Dundee Technology Park, Dundee, United Kingdom) and Reaction Biology Corp. (Malvern, Pa., USA).
(§2) All test peptides are prepared to 50× final assay concentration in 100% DMSO. This working stock of the test compound is added to assay wells as the first component in the reaction, followed by the remaining components of the respective assay protocols described below. There is no pre-incubation step between the test peptide and the kinase prior to initiation of the reaction. The kinases are diluted in buffer (20 mM MOPS, 1 mM EDTA, 0.01% Brij-35, 5% Glycerol, 0.1% β-mercaptoethanol, 1 mg/mL BSA) prior to addition to the reaction mix.
(§3) Positive control wells contain all components of the reaction, except the test peptide of interest. However, DMSO (at a final concentration of 2%) is included in positive control wells to control for solvent effects. Negative control wells contain all components of the reaction, with a reference inhibitor (staurosporine) replacing the test peptide. This abolishes kinase activity and establishes a base-line (0% kinase activity). Kinase assay protocols (Eurofins Pharma Discovery Services UK Ltd, Dundee Technology Park, Dundee, United Kingdom) are described below. Of the Src family kinases, only the assay protocol for c-Src is shown.
c-Src (h) is incubated with 8 mM MOPS pH 7.0, 0.2 mM EDTA, 250 μM KVEKIGEGTYGVVYK (Cdc2 peptide), 10 mM MgAcetate and [γ-^33P]-ATP (specific activity approx. 500 cpm/pmol, concentration as required). The reaction is initiated by the addition of the MgATP mix. After incubation for 40 minutes at room temperature, the reaction is stopped by the addition of 3% phosphoric acid solution. A 10 μL aliquot of the reaction is then spotted onto a P30 filtermat and washed three times for 5 minutes in 75 mM phosphoric acid and once in methanol prior to drying and scintillation counting.

For another series, the target named is T2, PKG1β (h) (Homo sapiens, UniProt Q13976).
T2 construct: purchased Eurofins Pharma Discovery Services UK Ltd (contract assay service)
T2 sequence (Q13976 1-686 isoform Q13976-2): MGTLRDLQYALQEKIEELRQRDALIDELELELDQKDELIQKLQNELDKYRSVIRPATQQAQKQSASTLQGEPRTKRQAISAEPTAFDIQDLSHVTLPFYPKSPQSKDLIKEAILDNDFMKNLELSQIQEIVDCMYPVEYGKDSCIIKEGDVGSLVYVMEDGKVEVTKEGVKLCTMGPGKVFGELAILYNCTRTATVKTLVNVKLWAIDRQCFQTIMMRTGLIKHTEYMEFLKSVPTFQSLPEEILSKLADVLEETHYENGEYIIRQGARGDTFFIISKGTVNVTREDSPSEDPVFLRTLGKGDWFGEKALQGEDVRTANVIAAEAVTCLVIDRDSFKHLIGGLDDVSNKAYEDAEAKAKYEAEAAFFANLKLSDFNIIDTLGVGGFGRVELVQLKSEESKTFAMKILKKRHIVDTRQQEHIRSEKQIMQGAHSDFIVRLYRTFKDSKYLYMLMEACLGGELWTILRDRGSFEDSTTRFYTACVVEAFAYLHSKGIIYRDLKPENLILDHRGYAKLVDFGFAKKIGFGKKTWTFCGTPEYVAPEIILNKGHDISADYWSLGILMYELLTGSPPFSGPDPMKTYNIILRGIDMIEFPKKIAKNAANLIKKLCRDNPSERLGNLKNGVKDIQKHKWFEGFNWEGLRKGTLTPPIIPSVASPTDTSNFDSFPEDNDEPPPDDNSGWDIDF
Put plainly: PKG1β kinase activity assay, cell free. The class given is biochemical. As to the method:
as §1, §2, §3
PKG1b(h) is incubated with 8 mM MOPS pH 7.0, 0.2 mM EDTA, 10 μM cGMP, 200 μM RRRLSFAEPG, 10 mM magnesium acetate and [γ-^33P]-ATP (specific activity approx. 500 cpm/pmol, concentration as required). The reaction is initiated by the addition of the MgATP mix. After incubation for 40 minutes at room temperature, the reaction is stopped by the addition of 3% phosphoric acid solution. A 10 μL aliquot of the reaction is then spotted onto a P30 filtermat and washed three times for 5 mins in 75 mM phosphoric acid and once in methanol prior to drying and scintillation counting.

In the next series the test system is CFA-injected mice. Put plainly: Grip strength testing in CFA study. Format: in vivo, C57Bl/6 mice. As to the method:
Forepaw grip strength was determined using a grip strength meter (DFIS-2 series digital force gauge, Columbus Instruments, Columbus, Ohio). The animals' forelimbs were placed on a horizontal bar connected to a force gauge. The animal was the gently pulled away from the bar and the peak force required for a release was recorded. Each mouse was tested 3 times, with a 1 min inter-trial interval (Martinez-Huenchullan, S. F., et al., “Utility and reliability of non-invasive muscle function tests in high-fat-fed mice”. Experimental Physiology, 2017. 102(7): p. 773-778). The average peak tension (g), and tension normalised to body weight were compared.

T1 sequence (P12931 whole entry): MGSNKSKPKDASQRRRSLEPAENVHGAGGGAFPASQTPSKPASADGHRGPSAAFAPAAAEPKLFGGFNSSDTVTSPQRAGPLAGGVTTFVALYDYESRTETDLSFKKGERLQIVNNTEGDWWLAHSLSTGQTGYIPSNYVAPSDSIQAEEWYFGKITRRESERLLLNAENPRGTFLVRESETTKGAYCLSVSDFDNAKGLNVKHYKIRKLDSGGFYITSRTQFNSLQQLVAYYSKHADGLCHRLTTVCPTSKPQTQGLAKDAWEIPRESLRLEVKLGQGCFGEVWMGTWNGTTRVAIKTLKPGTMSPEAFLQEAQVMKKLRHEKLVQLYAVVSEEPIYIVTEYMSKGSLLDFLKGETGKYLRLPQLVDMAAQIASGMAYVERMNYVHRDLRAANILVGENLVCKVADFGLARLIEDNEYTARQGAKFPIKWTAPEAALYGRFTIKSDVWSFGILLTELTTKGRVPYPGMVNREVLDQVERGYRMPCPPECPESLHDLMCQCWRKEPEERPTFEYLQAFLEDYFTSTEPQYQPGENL

As for `N=C(N)NCCC[C@H](NC(=O)[C@H](CCCNC(=N)N)NC(=O)[C@H](CCCNC(=N)N)NC(=O)[C@H](CCCNC(=N)N)NC(=O)[C@H](CCCNC(=N)N)NC(=O)[C@H](CCCNC(=N)N)NC(=O)[C@H](CCCNC(=N)N)NC(=O)[C@H](CCCNC(=N)N)NC(=O)[C@H](CCCNC(=N)N)NC(=O)[C@H](CCCNC(=N)N)NC(=O)[C@H](CCCNC(=N)N)NC(=O)[C@H](CCCNC(=N)N)NC(=O)[C@H](CCCNC(=N)N)NC(=O)[C@@H](N)CCCNC(=N)N)C(N)=O` [IK01400, RRRRRRRRRRRRRR-NH2], the values for the pIC50 at c-Src (h) and against PKG1β (h) were 8.26 and 8.28, respectively. For the same molecule, at PKG1β (h) (cell free, 10 μM cGMP, 40 minutes at room temperature), the “PKG1β IC50” value is “single digit nanomolar range”. In addition, the alertness of animals entry in the series with CFA-injected mice (all time points) is reported as “alert at all time points”. In addition, the “grip strength compared to vehicle control” value in the series on CFA-injected mice (intra-peritoneal, CFA study) is listed as “no difference”.

The pIC50 is −log10 of the IC50, conventionally taken in molar units. Low values mean a large IC50, high ones a small IC50.
